From ChEMBL document CHEMBL1135576, “Synthesis and biological characterization of L-N(6)-(1-iminoethyl)lysine 5-tetrazole-amide, a prodrug of a selective iNOS inhibitor” (J Med Chem, 2002)

How the values were obtained:
[1] = molecular target: T1, Nitric oxide synthase, inducible (Homo sapiens, UniProt P35228); assay: The concentration required for inhibition of Human inducible nitric oxide synthase (iNOS) isoform
Nitric oxide synthase 1 = Nitric oxide synthase 1 (Homo sapiens, UniProt P29475); assay: The concentration required for inhibition of Human Neuronal nitric oxide synthase (nNOS)
[2] = molecular target: T1, Nitric oxide synthase, inducible; assay: The concentration required for inhibition of Human inducible nitric oxide synthase (iNOS) isoform, expressed as IC50.

T1 sequence (P35228 whole entry, canonical isoform): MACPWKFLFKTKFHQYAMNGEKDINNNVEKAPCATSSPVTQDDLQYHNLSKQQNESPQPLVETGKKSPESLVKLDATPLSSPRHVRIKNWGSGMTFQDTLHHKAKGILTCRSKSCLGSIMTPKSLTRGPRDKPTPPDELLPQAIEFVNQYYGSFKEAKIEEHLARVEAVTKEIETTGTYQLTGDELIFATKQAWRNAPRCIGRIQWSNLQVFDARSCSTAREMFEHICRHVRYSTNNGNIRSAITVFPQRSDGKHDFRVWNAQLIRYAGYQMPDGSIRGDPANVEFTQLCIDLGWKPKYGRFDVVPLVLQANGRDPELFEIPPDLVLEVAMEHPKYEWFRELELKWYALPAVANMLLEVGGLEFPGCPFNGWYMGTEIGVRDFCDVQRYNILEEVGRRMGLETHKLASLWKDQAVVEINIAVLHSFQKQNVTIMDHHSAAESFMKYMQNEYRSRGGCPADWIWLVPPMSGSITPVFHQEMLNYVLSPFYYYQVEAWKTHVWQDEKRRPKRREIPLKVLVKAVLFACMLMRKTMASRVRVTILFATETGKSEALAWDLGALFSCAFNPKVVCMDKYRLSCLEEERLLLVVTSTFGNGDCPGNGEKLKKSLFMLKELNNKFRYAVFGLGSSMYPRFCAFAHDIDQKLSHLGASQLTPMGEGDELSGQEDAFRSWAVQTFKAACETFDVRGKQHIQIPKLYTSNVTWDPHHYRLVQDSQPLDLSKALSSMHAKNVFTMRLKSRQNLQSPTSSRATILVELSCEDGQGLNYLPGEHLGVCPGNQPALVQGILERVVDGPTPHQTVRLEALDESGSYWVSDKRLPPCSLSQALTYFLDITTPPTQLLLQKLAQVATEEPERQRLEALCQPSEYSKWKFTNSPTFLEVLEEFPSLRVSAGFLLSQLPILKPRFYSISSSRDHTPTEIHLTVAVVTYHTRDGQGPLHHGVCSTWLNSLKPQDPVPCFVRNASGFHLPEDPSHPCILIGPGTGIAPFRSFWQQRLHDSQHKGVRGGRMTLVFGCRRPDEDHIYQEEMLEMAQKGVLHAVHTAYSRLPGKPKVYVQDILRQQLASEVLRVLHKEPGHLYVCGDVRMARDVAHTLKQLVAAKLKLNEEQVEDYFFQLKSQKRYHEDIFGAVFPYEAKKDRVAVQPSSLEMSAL
Sequence of Nitric oxide synthase 1 (P29475 whole entry, canonical isoform): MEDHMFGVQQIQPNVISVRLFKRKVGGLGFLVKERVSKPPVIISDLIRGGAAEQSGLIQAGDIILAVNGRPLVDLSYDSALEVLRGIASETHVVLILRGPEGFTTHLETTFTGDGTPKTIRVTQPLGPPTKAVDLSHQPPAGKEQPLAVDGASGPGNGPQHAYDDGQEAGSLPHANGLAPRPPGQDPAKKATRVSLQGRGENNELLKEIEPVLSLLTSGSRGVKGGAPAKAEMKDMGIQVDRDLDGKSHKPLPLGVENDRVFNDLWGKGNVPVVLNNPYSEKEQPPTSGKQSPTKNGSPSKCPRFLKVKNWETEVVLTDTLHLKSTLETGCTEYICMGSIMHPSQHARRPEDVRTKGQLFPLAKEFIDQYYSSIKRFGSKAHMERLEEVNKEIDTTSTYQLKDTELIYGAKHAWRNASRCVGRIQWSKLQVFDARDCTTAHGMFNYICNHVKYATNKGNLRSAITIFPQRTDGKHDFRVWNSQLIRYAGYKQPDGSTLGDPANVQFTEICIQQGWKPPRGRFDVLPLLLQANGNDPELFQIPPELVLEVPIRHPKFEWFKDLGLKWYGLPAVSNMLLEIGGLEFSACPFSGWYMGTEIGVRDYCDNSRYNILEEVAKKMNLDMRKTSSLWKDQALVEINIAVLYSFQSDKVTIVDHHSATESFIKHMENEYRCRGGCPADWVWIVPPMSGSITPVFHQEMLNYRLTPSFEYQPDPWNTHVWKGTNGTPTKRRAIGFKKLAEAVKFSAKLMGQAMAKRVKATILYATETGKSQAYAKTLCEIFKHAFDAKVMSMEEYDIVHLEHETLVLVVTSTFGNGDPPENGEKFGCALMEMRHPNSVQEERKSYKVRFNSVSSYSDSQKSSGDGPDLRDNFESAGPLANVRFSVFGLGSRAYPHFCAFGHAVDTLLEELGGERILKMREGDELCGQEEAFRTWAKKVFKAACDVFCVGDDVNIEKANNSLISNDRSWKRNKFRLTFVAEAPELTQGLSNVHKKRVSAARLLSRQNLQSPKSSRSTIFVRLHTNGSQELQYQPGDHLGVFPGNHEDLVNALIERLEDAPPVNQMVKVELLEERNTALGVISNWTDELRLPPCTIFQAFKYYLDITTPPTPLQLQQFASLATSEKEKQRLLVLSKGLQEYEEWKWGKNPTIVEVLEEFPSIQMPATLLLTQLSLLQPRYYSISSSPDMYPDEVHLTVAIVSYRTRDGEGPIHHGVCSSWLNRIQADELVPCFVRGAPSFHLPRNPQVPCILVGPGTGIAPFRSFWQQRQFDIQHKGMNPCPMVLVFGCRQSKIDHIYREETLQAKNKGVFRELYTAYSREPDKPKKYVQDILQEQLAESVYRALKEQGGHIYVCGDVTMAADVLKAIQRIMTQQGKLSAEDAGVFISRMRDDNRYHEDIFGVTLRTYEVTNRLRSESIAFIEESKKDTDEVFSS

IC50 [1]	IC50 (Nitric oxide synthase 1)	IC50 [2]	SMILES
5.9 µM	35 µM	–	CC(=N)NCCCC[C@H](N)C(=O)O
–	> 1850 µM	> 1850 µM	CC(=N)NCCCC[C@H](N)C(=O)Nc1nnn[nH]1
